Structures are written as SMILES. Square brackets hold non-standard residues; d marks the D form. Peptide text beside a SMILES is read from it. * marks the point of attachment. Boc = CC(C)(C)OC(=O)*; OBn = c1ccc(CO*)cc1; For = O=C*

Our source for the IC50 values is ChEMBL document CHEMBL1125536, “Studies on neurokinin antagonists. 2. Design and structure-activity relationships of novel tripeptide substance P antagonists, N alpha-[N alpha-(N alpha-acetyl-L-threonyl)-N1-formyl-D-tryptophyl]-N- methyl-N-(phenylmethyl)-L-phenylalaninamide and its related compounds” (J Med Chem, 1992).

One experiment is filed under the species Cavia porcellus. The experiment in a line: Compound was tested for the inhibition of SP-induced contraction of isolated guinea pig trachea strips. The experiment is classed as functional.
The term IC50 denotes the point on the concentration scale where inhibition reaches its midpoint. In turn, `CC(=O)NC(C(=O)N[C@H](Cc1cn(C=O)c2ccccc12)C(=O)N[C@@H](Cc1ccccc1)C(=O)N(C)Cc1ccccc1)C(C)O` (stereo partly drawn) gave an IC50 of 2300 nM.

Biological target in another experiment: not listed separately
Kind of experiment: Inhibition of [3H]SP binding to guinea pig lung membranes.
As for `CN(C)C(=O)CCC(NC(=O)OC(C)(C)C)C(=O)N[C@H](Cc1cn(C=O)c2ccccc12)C(=O)N[C@@H](Cc1ccccc1)C(=O)N(C)Cc1ccccc1` (stereo partly drawn), the IC50 was 40 nM.

In turn, `CN(Cc1ccccc1)C(=O)[C@H](Cc1ccccc1)NC(=O)[C@@H](Cc1cn(C=O)c2ccccc12)NC(=O)CC(NC(=O)OC(C)(C)C)C(N)=O` (stereo partly drawn) displayed an IC50 of 180 nM.

In the case of `CN(Cc1ccccc1)C(=O)[C@H](Cc1ccccc1)NC(=O)[C@@H](Cc1cn(C=O)c2ccccc12)NC(=O)C1CC(O)CN1C(=O)OC(C)(C)C` (stereo partly drawn), the IC50 was 200 nM.

As for `CC(C)(C)OC(=O)N[C@@H](CCC(N)=O)C(=O)N[C@H](Cc1cn(C=O)c2ccccc12)C(=O)N[C@@H](Cc1ccccc1)C(=O)NCc1ccccc1`, the IC50 came out at 860 nM.

For `CN(Cc1ccccc1)C(=O)[C@H](Cc1ccccc1)NC(=O)[C@@H](Cc1cn(C=O)c2ccccc12)NC(=O)[C@H](CCC(N)=O)NC(=O)OC(C)(C)C`, the IC50 was determined as 48 nM.

As for `CC(O)C(NC(=O)CO)C(=O)N[C@H](Cc1cn(C=O)c2ccccc12)C(=O)N[C@@H](Cc1ccccc1)C(=O)N(C)Cc1ccccc1` (stereo partly drawn), the IC50 was found to be 20 nM.

`CC(=O)NC(CCC(=O)N(C)C)C(=O)N[C@H](Cc1cn(C=O)c2ccccc12)C(=O)N[C@@H](Cc1ccccc1)C(=O)N(C)Cc1ccccc1` (stereo partly drawn) returned an IC50 of 30 nM.

Turning to `CC(=O)NC(CO)C(=O)N[C@H](Cc1cn(C=O)c2ccccc12)C(=O)N[C@@H](Cc1ccccc1)C(=O)N(C)Cc1ccccc1` (stereo partly drawn), the IC50 stood at 50 nM.

Molecule `CN(Cc1ccccc1)C(=O)[C@H](Cc1ccccc1)NC(=O)[C@@H](Cc1cn(C=O)c2ccccc12)NC(=O)C(Cc1c[nH]cn1)NC(=O)OC(C)(C)C` (stereo partly drawn) showed an IC50 of 140 nM.

Consider `CC(O)C(NC(=O)CCN)C(=O)N[C@H](Cc1cn(C=O)c2ccccc12)C(=O)N[C@@H](Cc1ccccc1)C(=O)N(C)Cc1ccccc1` (stereo partly drawn), for which the IC50 worked out at 100 nM.

In turn, `CC(O)C(NC(=O)N1CCOCC1)C(=O)N[C@H](Cc1cn(C=O)c2ccccc12)C(=O)N[C@@H](Cc1ccccc1)C(=O)N(C)Cc1ccccc1` (stereo partly drawn) had an IC50 of 20 nM.

`CC(=O)NC(C(=O)N[C@H](Cc1cn(C=O)c2ccccc12)C(=O)N[C@@H](Cc1ccccc1)C(=O)N(C)Cc1ccccc1)C(C)O` (stereo partly drawn) returned an IC50 of 5.8 nM.

Molecule `CC(=O)NC(Cc1c[nH]cn1)C(=O)N[C@H](Cc1cn(C=O)c2ccccc12)C(=O)N[C@@H](Cc1ccccc1)C(=O)N(C)Cc1ccccc1` (stereo partly drawn) had an IC50 of 100 nM. This IC50 is about 17-fold higher than that of the molecule before.

Turning to `CC(C)(C)OC(=O)N[C@@H](CCC(N)=O)C(=O)N[C@H](Cc1cn(C=O)c2ccccc12)C(=O)N[C@@H](Cc1ccccc1)C(=O)OCc1ccccc1` (Boc-Gln-[dW](For)-Phe-OBn), the IC50 was 90 nM.

`CCN(CC)CCC(=O)NC(C(=O)N[C@H](Cc1cn(C=O)c2ccccc12)C(=O)N[C@@H](Cc1ccccc1)C(=O)N(C)Cc1ccccc1)C(C)O` (stereo partly drawn) yielded an IC50 of 20 nM.

The molecule `CC(C)(C)OC(=O)N[C@@H](CCC(N)=O)C(=O)N[C@H](Cc1cn(C=O)c2ccccc12)C(=O)N[C@@H](Cc1ccccc1)C(=O)CCc1ccccc1` registered an IC50 of 430 nM.

Molecule `C[C@@H](O)[C@H](NC(=O)CN)C(=O)N[C@H](Cc1cn(C=O)c2ccccc12)C(=O)N[C@@H](Cc1ccccc1)C(=O)N(C)Cc1ccccc1` came in with an IC50 of 230 nM.

Regarding `CC(O)C(C(=O)N[C@H](Cc1cn(C=O)c2ccccc12)C(=O)N[C@@H](Cc1ccccc1)C(=O)N(C)Cc1ccccc1)N(C)C(=O)OC(C)(C)C` (stereo partly drawn), the IC50 stood at 290 nM.

Turning to `CC(O)C(NC(=O)OC(C)(C)C)C(=O)N[C@H](Cc1cn(C=O)c2ccccc12)C(=O)N[C@@H](Cc1ccccc1)C(=O)N(C)Cc1ccccc1` (stereo partly drawn), the IC50 was found to be 60 nM.

The molecule `CC(O)C(N)C(=O)N[C@H](Cc1cn(C=O)c2ccccc12)C(=O)N[C@@H](Cc1ccccc1)C(=O)N(C)Cc1ccccc1` (stereo partly drawn) showed an IC50 of 600 nM.

The next experiment deals with Substance-P receptor (Cavia porcellus, UniProt P30547). Kind of experiment: Compound was tested for the inhibition of [3H]SP binding to guinea pig lung membranes; Not active.
Chain of Substance-P receptor (P30547 whole entry): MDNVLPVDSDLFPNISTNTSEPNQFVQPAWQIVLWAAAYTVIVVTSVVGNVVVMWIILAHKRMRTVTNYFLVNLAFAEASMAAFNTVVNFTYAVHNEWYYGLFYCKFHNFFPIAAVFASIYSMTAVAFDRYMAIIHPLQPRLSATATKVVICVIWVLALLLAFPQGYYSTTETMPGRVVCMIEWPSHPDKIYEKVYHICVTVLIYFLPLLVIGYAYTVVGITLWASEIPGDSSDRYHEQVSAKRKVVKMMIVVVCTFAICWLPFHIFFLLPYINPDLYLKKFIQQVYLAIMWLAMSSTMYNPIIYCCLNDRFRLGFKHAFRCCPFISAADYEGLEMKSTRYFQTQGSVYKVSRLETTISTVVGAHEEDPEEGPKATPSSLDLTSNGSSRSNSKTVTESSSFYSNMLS
As for `CC(O)C(NC(=O)CCCC(=O)O)C(=O)N[C@H](Cc1cn(C=O)c2ccccc12)C(=O)N[C@@H](Cc1ccccc1)C(=O)N(C)Cc1ccccc1` (stereo partly drawn), the IC50 entry was “Not Active”.

On to `CC(O)C(NC(=O)CCC(=O)O)C(=O)N[C@H](Cc1cn(C=O)c2ccccc12)C(=O)N[C@@H](Cc1ccccc1)C(=O)N(C)Cc1ccccc1` (stereo partly drawn), for which the IC50 result is “Not Active”.
